Reference: ChEMBL document CHEMBL1132534, “Predicting relative binding free energies of tacrine-huperzine A hybrids as inhibitors of acetylcholinesterase” (J Med Chem, 1999)

Molecular target: Acetylcholinesterase (Homo sapiens) (UniProt P22303)
Test: Inhibitory activity against acetylcholinesterase compared to the IC50 of (-)-9M-HTH

Chain of Acetylcholinesterase (Homo sapiens) (P22303 whole entry): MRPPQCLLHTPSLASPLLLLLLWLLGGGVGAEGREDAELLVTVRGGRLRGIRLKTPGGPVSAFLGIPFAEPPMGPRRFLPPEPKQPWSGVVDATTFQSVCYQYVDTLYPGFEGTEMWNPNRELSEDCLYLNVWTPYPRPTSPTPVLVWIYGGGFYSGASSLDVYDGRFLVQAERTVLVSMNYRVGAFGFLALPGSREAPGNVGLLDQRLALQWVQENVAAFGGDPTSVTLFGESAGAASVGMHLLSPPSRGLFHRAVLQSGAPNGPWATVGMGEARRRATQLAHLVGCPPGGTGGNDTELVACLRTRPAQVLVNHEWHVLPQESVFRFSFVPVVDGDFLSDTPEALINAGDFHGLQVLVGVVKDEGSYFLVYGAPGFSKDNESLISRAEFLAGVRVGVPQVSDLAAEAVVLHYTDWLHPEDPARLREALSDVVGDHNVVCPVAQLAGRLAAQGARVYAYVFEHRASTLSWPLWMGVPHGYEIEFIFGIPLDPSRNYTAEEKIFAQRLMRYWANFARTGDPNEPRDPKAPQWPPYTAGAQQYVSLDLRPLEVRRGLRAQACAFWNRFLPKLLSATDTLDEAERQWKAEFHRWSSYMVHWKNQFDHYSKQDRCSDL

CC1=C[C@@H]2Cc3nc4cc(F)ccc4c(N)c3[C@H](C1)C2
Fold IC50: 15
